Among the test systems are CHRF288-11; CMK; CMS; M07e; ML-2; MOLM-13; MV4-11; U937.
Holding throughout (parameters): species or system AML cell lines (8); Primary HTS, single concentration about 10 uM, Cell Titer Glo viability; log10 luminescence, per cent inhibition relative to cycloheximide control
Settings in all cases: 72 h, relative to cycloheximide control, log10 luminescence, inhibitor
In general terms: In ATP-based viability assays light output follows the ATP content of the culture.

Structures can show the parent of a compound that is named as a salt. Where two headings read alike, the source gives them in different places.

For `Cc1ccc2cc3c(ccc4ccccc43)c3c2c1CC3` [SJ000285253-3, 3-METHYLCHOLANTHRENE], the CHRF288-11 %inh in the assay on CHRF288-11 was 5.022%. Also, the CMK %inh in the assay on CMK was 1.143%. For the same compound, the CMS %inh with CMS came to 3.804%. The M07e %inh with M07e is listed as 0.9432%. The ML-2 %inh in the assay with ML-2 is recorded as 4.978%. The MOLM-13 %inh with MOLM-13 is recorded as 2.389%. The MV4-11 %inh in the assay on MV4-11 is listed as 4.129%. Further, the U937 %inh in the assay on U937 was 0.01725%.

For the compound `O=C1NC(=O)C(c2c[nH]c3ccccc23)=C1c1ccccc1` [SJ000581075-1], the CHRF288-11 %inh in the assay on CHRF288-11 was 16.2%. The CMK %inh with CMK was -2.624%. Also, the CMS %inh with CMS is -0.679%. Also, the M07e %inh with M07e was 3.019%. Moreover, in the assay with ML-2, the ML-2 %inh is listed as 1.922%. Also, in the assay with MOLM-13, the MOLM-13 %inh is recorded as -2.51%. Moreover, in the assay with MV4-11, the MV4-11 %inh worked out at 1.744%. For the same compound, the U937 %inh in the assay with U937 is 2.672%.

Regarding `COc1cc2c(cc1O)CC[C@@H]1[C@@H]2CC[C@]2(C)[C@@H](O)CC[C@@H]12` [SJ000288002-5, 2-METHOXYESTRADIOL | 2-METHOXYESTRADIOL | PANZEM | PULMOLAR | 2-ME | 2-MEOE2 | 2ME2 | NSC-659853 | | 2-METHOXYESTRADIOL | 2-ME | 2-MEOE2 | 2ME2 | NSC-659853 | | 2-METHOXYESTRADIOL (2-MEOE2)], the CHRF288-11 %inh in the assay with CHRF288-11 (CHRF288-11 %inh, 10 µM) was 61.44%. Further, the CMK %inh in the assay on CMK (CMK %inh, 10 µM) worked out at 118%. In addition, the CMS %inh in the assay with CMS (CMS %inh, 10 µM) is listed as 96.86%. The M07e %inh in the assay with M07e (M07e %inh, 10 µM) is 94.34%. Besides, in the assay on ML-2 (ML-2 %inh, 10 µM), the ML-2 %inh amounted to 56.77%. The MOLM-13 %inh in the assay on MOLM-13 (MOLM-13 %inh, 10 µM) amounted to 80.44%. In addition, in the assay with MV4-11 (MV4-11 %inh, 10 µM), the MV4-11 %inh was 76.13%. For the same compound, the U937 %inh in the assay on U937 (U937 %inh, 10 µM) came out at 80.21%.

On to `NS(=O)(=O)c1cccc(-c2cc3ccncc3cc2OCc2ccccc2)c1` [SJ000573034-1, R14712/3/10], for which, in the assay on CHRF288-11, the CHRF288-11 %inh came to 2.678%. Also, in the assay on CMK, the CMK %inh was -0.5905%. In the assay on CMS, the CMS %inh is 1.551%. Besides, the M07e %inh with M07e is recorded as -1.198%. In addition, in the assay on ML-2, the ML-2 %inh was determined as 0.9825%. For the same compound, the MOLM-13 %inh with MOLM-13 worked out at 2.316%. For the same compound, the MV4-11 %inh in the assay with MV4-11 came out at 0.8878%. In the assay on U937, the U937 %inh was 3.709%.

In the case of `CCn1c(-c2nonc2N)nc2c(C#CC(C)(C)O)nc(OC[C@H](N)c3ccccc3)cc21` [SJ000573312-2, LS204454-145A1 | LS204454-146A1], in the assay on CHRF288-11, the CHRF288-11 %inh was found to be 83.17%. In addition, the CMK %inh in the assay with CMK was 111.5%. Moreover, the CMS %inh in the assay with CMS is reported as 42.42%. Further, in the assay with M07e, the M07e %inh is recorded as 46.62%. Besides, the ML-2 %inh with ML-2 is 28.64%. Further, in the assay on MOLM-13, the MOLM-13 %inh is listed as 14.91%. In addition, in the assay with MV4-11, the MV4-11 %inh is given as 22.87%. In the assay on U937, the U937 %inh is given as 44.96%.

Consider `C[C@H](CS)C(=O)N1CCC[C@H]1C(=O)O` [SJ000286908-10, CAPTOPRIL], for which the CHRF288-11 %inh with CHRF288-11 (CHRF288-11 %inh, 10 µM) is -3.972%. Also, the CMK %inh in the assay with CMK (CMK %inh, 10 µM) stood at 3.343%. Further, in the assay with CMS (CMS %inh, 10 µM), the CMS %inh is -3.33%. In the assay with M07e (M07e %inh, 10 µM), the M07e %inh is reported as -1.533%. Further, the ML-2 %inh in the assay on ML-2 (ML-2 %inh, 10 µM) is given as -0.772%. Moreover, in the assay with MOLM-13 (MOLM-13 %inh, 10 µM), the MOLM-13 %inh is on record as 0.8092%. Further, in the assay on MV4-11 (MV4-11 %inh, 10 µM), the MV4-11 %inh was -0.07613%. For the same compound, the U937 %inh in the assay on U937 (U937 %inh, 10 µM) came out at 51.26%.

On to `CCN(CC)CCOC(=O)c1ccc(N)cc1Cl` [SJ000565166-1, CHLOROPROCAINE HYDROCHLORIDE], for which the CHRF288-11 %inh in the assay on CHRF288-11 stood at 2.414%. Besides, the CMK %inh in the assay on CMK was -4.183%. In the assay with CMS, the CMS %inh is -2.449%. In addition, the M07e %inh in the assay with M07e is on record as -0.3142%. The ML-2 %inh with ML-2 came to 1.664%. For the same compound, in the assay on MOLM-13, the MOLM-13 %inh came to 5.209%. The MV4-11 %inh with MV4-11 is 1.062%. The U937 %inh with U937 is on record as -1.434%.

Regarding `Cn1c(=O)c(Oc2ccccc2)cc2cnc(NC3CCOCC3)nc21` [SJ000581171-1], the CHRF288-11 %inh in the assay with CHRF288-11 is listed as 9.708%. In addition, the CMK %inh in the assay with CMK stood at 8.741%. In addition, the CMS %inh in the assay with CMS was 6.487%. In addition, the M07e %inh in the assay with M07e was 1.8%. Also, in the assay with ML-2, the ML-2 %inh is 2.493%. The MOLM-13 %inh in the assay on MOLM-13 turned out to be 4.705%. For the same compound, in the assay on MV4-11, the MV4-11 %inh is 4.76%. In the assay on U937, the U937 %inh is 5.834%.

For `C[C@@H](O)[C@@H]1NC(=O)[C@H](CCCCN)NC(=O)[C@@H](Cc2c[nH]c3ccccc23)NC(=O)[C@H](Cc2ccccc2)NC(=O)[C@@H](NC(=O)[C@H](N)Cc2ccccc2)CSSC[C@@H](C(=O)N[C@H](CO)[C@@H](C)O)NC1=O` [SJ000520506-1, OCTREOTIDE ACETATE], the CHRF288-11 %inh in the assay with CHRF288-11 was 5.062%. In addition, the CMK %inh with CMK was -5.736%. Further, the CMS %inh in the assay on CMS is given as 0.6202%. For the same compound, in the assay with M07e, the M07e %inh is reported as -0.4484%. Also, in the assay with ML-2, the ML-2 %inh came to 0.4552%. For the same compound, the MOLM-13 %inh in the assay with MOLM-13 is reported as 0.6504%. In addition, in the assay on MV4-11, the MV4-11 %inh is 0.9577%. In addition, the U937 %inh in the assay with U937 is reported as -3.486%.

Take `NC(=O)c1ccc(Oc2nccc(-c3c(-c4ccc(F)cc4)ncn3C3CCNCC3)n2)cc1` [SJ000573120-1, JB27193-061B1]: in the assay on CHRF288-11, the CHRF288-11 %inh was 0.2701%. Also, the CMK %inh in the assay with CMK stood at 7.904%. The CMS %inh with CMS is on record as -1.264%. The M07e %inh in the assay with M07e is given as -0.791%. The ML-2 %inh in the assay on ML-2 was found to be 1.469%. Also, in the assay on MOLM-13, the MOLM-13 %inh worked out at 6.408%. In the assay on MV4-11, the MV4-11 %inh is reported as 1.936%. Further, the U937 %inh in the assay with U937 was determined as 4.71%.

As to `NS(=O)(=O)c1ccc(Nc2cc(-c3ccc(O)c(F)c3)n[nH]2)cc1` [SJ000573315-1, T350/112/30], the CHRF288-11 %inh with CHRF288-11 was -4.039%. Also, the CMK %inh in the assay with CMK is -1.653%. The CMS %inh with CMS is listed as -2.048%. Also, in the assay with M07e, the M07e %inh is listed as -0.4073%. Moreover, the ML-2 %inh in the assay on ML-2 stood at 0.5816%. The MOLM-13 %inh in the assay on MOLM-13 was found to be 77.64%. The MV4-11 %inh in the assay with MV4-11 amounted to 53.96%. For the same compound, the U937 %inh with U937 is listed as 0.1443%.

Consider `CCOC(=O)C1=C(C)NC(C)=C(C(=O)OCC)C1c1ccccc1/C=C/C(=O)OC(C)(C)C` [SJ000541098-2, LACIDIPINE], for which the CHRF288-11 %inh in the assay with CHRF288-11 (CHRF288-11 %inh, 10 µM) is on record as -1.312%. The CMK %inh with CMK (CMK %inh, 10 µM) was found to be 1.983%. The CMS %inh in the assay on CMS (CMS %inh, 10 µM) is -2.509%. For the same compound, the M07e %inh with M07e (M07e %inh, 10 µM) is -0.9057%. In the assay on ML-2 (ML-2 %inh, 10 µM), the ML-2 %inh is recorded as 5.24%. Also, the MOLM-13 %inh in the assay on MOLM-13 (MOLM-13 %inh, 10 µM) was 10.16%. In addition, the MV4-11 %inh with MV4-11 (MV4-11 %inh, 10 µM) was 6.96%. For the same compound, the U937 %inh in the assay on U937 (U937 %inh, 10 µM) is recorded as 12.91%.

For the compound `Cn1cc(C2=C(c3c4n(c5ccccc35)CCCCC4)C(=O)NC2=O)c2ccccc21` [SJ000581007-1], in the assay with CHRF288-11, the CHRF288-11 %inh is -2.847%. In addition, in the assay on CMK, the CMK %inh was found to be 2.966%. Moreover, the CMS %inh in the assay with CMS was -2.233%. The M07e %inh in the assay with M07e was found to be 0.1866%. Further, the ML-2 %inh in the assay with ML-2 is listed as -3.106%. Besides, the MOLM-13 %inh with MOLM-13 is on record as -0.4157%. Moreover, the MV4-11 %inh with MV4-11 is -1.05%. Moreover, the U937 %inh in the assay with U937 is -0.6469%.

Turning to `CCn1c(-c2nonc2N)nc2c(C#CC(C)(C)O)nc(OC[C@@H](N)c3ccccc3)cc21` [SJ000573312-1, LS204454-145A1 | LS204454-146A1], the CHRF288-11 %inh in the assay on CHRF288-11 worked out at 122.3%. Also, in the assay on CMK, the CMK %inh amounted to 11.49%. Besides, in the assay with CMS, the CMS %inh was found to be 24.21%. Also, the M07e %inh with M07e is 29.99%. Moreover, the ML-2 %inh in the assay with ML-2 came out at 7.922%. Besides, the MOLM-13 %inh in the assay on MOLM-13 is given as 19.15%. Further, the MV4-11 %inh with MV4-11 is recorded as 7.841%. The U937 %inh with U937 is 37.57%.

For the compound `CCc1nn2ncccc2c1-c1ccnc(NC2CC2)n1` [SJ000573100-1, U16767/17/1], the CHRF288-11 %inh with CHRF288-11 stood at 0.1094%. Also, in the assay with CMK, the CMK %inh was -4.45%. Besides, the CMS %inh with CMS worked out at 3.597%. The M07e %inh in the assay on M07e worked out at 1.664%. Moreover, the ML-2 %inh in the assay on ML-2 is given as 0.1681%. In addition, in the assay with MOLM-13, the MOLM-13 %inh turned out to be 5.368%. In addition, the MV4-11 %inh in the assay with MV4-11 is recorded as 0.7749%. In the assay on U937, the U937 %inh was determined as 0.5788%.

Take `COc1cc(N2CCN(C(C)C)CC2)ccc1Nc1nc(Nc2cccc3ncccc23)c2cc[nH]c2n1` [SJ000573300-1, U24088/12/1]: in the assay with CHRF288-11, the CHRF288-11 %inh came out at 47.23%. Further, the CMK %inh with CMK amounted to 79.69%. In addition, the CMS %inh with CMS was found to be 0.4893%. Moreover, the M07e %inh with M07e stood at 3.774%. The ML-2 %inh in the assay with ML-2 is recorded as 8.95%. Moreover, the MOLM-13 %inh with MOLM-13 is given as 33.94%. Besides, the MV4-11 %inh in the assay with MV4-11 was 11.79%. In the assay with U937, the U937 %inh is listed as 16.14%.

The record behind these values is PMC6522510 (Nature Communications, 2019).
